Results taken from ChEMBL document CHEMBL1201862, “PubChem BioAssay data set” (2004).
The source made the active and inactive calls.

Key:
Escherichia coli = experiment: microbe, parasite or virus in culture
[1] = target: T1, Nucleotide-binding oligomerization domain-containing protein 1 (Homo sapiens, UniProt Q9Y239); experiment: NOD1 signaling inhibitors, SAR follow-up, revised (AID 2333); type: functional
T1 sequence (Q9Y239 whole entry): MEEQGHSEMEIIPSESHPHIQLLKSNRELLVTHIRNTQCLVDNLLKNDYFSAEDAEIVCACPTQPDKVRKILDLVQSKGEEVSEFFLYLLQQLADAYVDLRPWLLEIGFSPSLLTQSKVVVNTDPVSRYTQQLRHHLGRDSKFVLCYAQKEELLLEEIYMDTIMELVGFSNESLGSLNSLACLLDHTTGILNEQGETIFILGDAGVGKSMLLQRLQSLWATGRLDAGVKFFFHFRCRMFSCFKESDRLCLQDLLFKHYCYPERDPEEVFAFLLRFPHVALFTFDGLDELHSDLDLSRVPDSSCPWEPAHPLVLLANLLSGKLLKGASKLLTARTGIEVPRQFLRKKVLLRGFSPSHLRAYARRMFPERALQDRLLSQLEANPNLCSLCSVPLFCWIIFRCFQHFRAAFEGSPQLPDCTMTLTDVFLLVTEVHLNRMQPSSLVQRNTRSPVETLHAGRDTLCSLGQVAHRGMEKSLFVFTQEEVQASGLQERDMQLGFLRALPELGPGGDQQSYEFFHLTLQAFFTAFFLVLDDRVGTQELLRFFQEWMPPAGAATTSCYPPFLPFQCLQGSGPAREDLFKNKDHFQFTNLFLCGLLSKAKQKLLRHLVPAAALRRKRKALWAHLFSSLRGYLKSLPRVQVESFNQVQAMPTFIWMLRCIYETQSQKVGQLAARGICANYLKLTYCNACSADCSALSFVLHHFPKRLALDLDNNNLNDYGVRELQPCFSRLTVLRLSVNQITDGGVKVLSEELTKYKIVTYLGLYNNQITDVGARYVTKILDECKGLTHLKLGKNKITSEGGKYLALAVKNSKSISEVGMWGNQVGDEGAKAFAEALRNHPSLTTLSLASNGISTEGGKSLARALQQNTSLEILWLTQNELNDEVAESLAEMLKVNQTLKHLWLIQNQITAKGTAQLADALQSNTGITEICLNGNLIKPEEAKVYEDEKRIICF

HEK293 = experiment: cells; details: Homo sapiens;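 further: cells exposed to compound for 14 hours overnight before viability readout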
Tumor necrosis factor = Tumor necrosis factor (Homo sapiens, UniProt P01375); experiment: TNFa-triggered NF-kB activation inhibitors, SAR follow-up, cell-based, revised (AID 2337); type: functional
Vero [2] = experiment: cells; type: functional, cell-based; details: Chlorocebus sabaeus
Vero [3] = experiment: cells; type: functional; details: Chlorocebus sabaeus
[4] = target: T2, Heat shock factor protein 1 (Mus musculus, UniProt P38532); experiment: HSF1 potentiators in luciferase reporter cells, confirmation, cell-based, NIH3T3, luminescence, dose retest (AID 435004); type: functional;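 further: stress induced by proteasome inhibitor MG132 added 30 min after compound; luciferase reporter driven by HSF1 response element in NIH3T3 cells; actives raise luminescence as potentiators of the MG132 stress response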
T2 sequence (P38532 whole entry): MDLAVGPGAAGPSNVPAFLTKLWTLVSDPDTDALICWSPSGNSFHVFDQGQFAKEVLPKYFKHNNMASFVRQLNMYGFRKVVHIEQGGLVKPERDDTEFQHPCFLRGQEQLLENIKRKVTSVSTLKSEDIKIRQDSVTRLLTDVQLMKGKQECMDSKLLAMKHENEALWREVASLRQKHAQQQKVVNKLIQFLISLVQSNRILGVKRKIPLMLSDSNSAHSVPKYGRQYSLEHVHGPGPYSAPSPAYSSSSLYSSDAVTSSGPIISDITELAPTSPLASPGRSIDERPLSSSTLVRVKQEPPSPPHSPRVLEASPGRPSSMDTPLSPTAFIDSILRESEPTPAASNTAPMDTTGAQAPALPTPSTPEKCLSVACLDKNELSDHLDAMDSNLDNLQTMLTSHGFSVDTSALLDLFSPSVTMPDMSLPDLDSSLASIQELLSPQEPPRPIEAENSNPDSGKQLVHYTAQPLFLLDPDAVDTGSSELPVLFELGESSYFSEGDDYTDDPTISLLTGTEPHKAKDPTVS

Caspase-3 = target: T3, Caspase-3 (Homo sapiens, UniProt P42574); type: functional;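 further: Dose-response selectivity test against caspase-3 for candidate inhibitors of sentrin-specific proteases (SENPs)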
T3 sequence (P42574 whole entry): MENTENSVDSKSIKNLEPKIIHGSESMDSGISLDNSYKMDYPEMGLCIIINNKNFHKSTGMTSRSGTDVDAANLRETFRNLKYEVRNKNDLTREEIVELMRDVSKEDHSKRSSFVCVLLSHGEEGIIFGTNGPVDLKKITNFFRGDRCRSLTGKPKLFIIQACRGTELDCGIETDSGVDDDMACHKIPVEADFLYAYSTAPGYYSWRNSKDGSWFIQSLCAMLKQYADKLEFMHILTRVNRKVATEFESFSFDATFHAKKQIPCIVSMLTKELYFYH

[5] = target: T4, Sentrin-specific protease 7 (Homo sapiens, UniProt Q9BQF6); type: functional;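 further: Luminescence-based dose-response confirmation of ultra-high-throughput screening hits, measuring inhibition of SENP7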
T4 sequence (Q9BQF6 whole entry): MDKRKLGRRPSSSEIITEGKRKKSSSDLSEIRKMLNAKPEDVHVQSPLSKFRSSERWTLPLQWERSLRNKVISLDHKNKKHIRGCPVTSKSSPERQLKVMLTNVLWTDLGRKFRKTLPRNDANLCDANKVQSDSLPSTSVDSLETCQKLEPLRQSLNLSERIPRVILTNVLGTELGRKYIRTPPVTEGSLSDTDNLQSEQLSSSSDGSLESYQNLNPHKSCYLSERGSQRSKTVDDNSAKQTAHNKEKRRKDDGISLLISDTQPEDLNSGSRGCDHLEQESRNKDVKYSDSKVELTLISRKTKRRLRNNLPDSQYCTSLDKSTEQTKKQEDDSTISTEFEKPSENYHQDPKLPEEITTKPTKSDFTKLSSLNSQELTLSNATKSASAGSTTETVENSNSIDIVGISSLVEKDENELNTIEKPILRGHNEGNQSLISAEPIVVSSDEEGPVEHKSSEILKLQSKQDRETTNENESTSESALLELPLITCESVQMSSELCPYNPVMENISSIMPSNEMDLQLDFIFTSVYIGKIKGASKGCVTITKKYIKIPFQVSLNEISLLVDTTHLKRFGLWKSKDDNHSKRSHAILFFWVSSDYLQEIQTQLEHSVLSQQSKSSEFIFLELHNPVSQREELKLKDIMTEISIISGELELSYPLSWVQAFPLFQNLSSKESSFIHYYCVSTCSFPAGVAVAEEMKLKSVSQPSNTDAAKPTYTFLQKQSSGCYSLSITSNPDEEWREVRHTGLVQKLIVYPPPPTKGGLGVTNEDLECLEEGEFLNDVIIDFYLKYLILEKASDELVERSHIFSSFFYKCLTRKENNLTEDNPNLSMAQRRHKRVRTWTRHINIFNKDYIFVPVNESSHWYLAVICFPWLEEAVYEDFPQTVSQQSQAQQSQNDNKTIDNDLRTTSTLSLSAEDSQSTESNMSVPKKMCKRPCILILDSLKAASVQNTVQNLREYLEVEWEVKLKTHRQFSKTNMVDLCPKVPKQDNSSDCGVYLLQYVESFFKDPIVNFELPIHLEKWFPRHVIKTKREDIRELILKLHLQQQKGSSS

[6] = target: T5, Sentrin-specific protease 8 (Homo sapiens, UniProt Q96LD8); type: functional;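 further: luminescence read-out of SENP8 inhibition, dose-response confirmation following an ultra-high-throughput screen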
T5 sequence (Q96LD8 whole entry): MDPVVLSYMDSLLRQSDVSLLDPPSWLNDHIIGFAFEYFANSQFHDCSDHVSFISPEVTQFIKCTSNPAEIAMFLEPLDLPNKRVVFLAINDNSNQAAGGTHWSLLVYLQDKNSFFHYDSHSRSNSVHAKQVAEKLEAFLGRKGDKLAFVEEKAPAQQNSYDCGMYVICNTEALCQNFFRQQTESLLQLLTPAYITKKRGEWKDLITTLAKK

[7] = target: T6, Sentrin-specific protease 6 (Homo sapiens, UniProt Q9GZR1); type: functional;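 further: Luminescence-based dose-response confirmatory assay of SENP6 inhibition, following up an ultra-high-throughput screen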
T6 sequence (Q9GZR1 whole entry): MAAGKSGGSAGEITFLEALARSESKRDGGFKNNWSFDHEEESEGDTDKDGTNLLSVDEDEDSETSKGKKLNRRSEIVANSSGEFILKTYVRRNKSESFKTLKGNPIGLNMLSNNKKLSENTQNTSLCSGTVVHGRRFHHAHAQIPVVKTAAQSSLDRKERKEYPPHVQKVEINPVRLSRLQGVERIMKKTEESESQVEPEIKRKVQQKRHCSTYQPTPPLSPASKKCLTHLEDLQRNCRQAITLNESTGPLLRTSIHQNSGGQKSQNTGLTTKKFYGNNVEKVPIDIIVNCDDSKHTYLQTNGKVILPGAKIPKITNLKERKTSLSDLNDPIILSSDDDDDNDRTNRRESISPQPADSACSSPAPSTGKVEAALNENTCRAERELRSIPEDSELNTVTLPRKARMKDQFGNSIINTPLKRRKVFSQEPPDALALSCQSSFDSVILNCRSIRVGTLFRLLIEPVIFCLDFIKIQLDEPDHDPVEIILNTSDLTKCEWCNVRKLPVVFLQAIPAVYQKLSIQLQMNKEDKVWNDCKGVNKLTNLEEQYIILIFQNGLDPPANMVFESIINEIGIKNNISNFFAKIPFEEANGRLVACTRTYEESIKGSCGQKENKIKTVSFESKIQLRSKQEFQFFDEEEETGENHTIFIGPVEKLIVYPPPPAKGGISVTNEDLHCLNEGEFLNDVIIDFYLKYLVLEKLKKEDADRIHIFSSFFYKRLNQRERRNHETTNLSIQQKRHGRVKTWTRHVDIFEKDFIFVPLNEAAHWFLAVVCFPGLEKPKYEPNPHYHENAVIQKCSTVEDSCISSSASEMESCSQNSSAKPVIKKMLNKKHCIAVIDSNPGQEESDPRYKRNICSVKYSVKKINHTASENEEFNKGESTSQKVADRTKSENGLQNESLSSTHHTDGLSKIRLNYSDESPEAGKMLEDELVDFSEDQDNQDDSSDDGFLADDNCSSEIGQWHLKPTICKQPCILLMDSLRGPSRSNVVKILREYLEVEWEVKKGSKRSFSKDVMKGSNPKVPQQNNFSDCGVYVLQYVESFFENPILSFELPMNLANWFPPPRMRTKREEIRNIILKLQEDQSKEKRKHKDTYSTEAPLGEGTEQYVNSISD

Phospholipase A2 = Phospholipase A2 (Homo sapiens, UniProt P04054); type: functional;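 further: confirmatory dose-response counterscreen on phospholipase A2, testing hits that came from an ultra-high-throughput screen for ATG4B inhibitors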
Cysteine protease ATG4B = target: T7, Cysteine protease ATG4B (Homo sapiens, UniProt Q9Y4P1); type: functional;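 further: Fluorescence-based dose-response confirmation assay measuring inhibition of ATG4B activity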
T7 sequence (Q9Y4P1 whole entry): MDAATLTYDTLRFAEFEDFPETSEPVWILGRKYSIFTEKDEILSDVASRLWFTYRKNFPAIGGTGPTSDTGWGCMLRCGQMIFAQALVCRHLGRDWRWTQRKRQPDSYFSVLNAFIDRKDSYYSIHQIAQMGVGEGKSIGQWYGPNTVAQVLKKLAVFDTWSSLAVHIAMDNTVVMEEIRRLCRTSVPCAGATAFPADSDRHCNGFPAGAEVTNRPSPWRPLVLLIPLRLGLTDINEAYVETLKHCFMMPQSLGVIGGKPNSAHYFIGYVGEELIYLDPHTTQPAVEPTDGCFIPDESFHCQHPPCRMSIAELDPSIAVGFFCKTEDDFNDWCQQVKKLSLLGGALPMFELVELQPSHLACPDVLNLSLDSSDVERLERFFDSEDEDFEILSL

[8] = HEp-2 cell cytotoxicity, dose response, cytotoxicity control for RSV inhibitor project, HTS (AID 2410); type: functional; details: human respiratory syncytial virus
[9] = Luminescence Cell-Based Dose Response HTS to Identify Activators of Luciferase Translation or Activity in H4 […] Cells. [Related pubchem assays: 1829 (Project Summary), 1814 (Primary HTS)]; type: functional
H4 = experiment: Luminescence Cell-Based Dose Response HTS to Identify Activators of 5'UTR Stem-Loop Driven Prion Protein mRNA Translation in H4 Neuroglioblastoma Cells. [Related pubchem assays: 1829 (Project Summary), 1814 (Primary HTS)]; type: functional; details: Homo sapiens

Chain of Tumor necrosis factor (P01375 whole entry): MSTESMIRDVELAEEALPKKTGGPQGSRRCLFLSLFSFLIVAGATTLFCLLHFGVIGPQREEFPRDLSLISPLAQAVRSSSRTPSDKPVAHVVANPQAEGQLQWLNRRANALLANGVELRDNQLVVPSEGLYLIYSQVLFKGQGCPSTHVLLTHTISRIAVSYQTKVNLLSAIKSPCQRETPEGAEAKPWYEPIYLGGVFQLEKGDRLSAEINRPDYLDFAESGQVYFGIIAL
Chain of Phospholipase A2 (P04054 whole entry): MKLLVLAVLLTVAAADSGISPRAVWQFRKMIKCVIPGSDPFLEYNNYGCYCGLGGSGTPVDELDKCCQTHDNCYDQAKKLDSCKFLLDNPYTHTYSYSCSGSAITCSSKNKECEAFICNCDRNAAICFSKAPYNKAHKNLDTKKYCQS

With `CCOc1ccc(NC(=O)c2ccc(NC(=O)COC(=O)Cc3ccc(OC)cc3)cc2)cc1` the AC50 (Escherichia coli) was 21.4 µM (active).
For `CC(C)(C)C(=O)/N=C(\N)Nc1nc2ccccc2o1`, the IC50 [1] was > 20 µM (inactive), the IC50 (HEK293) was > 20 µM (inactive) and the IC50 (Tumor necrosis factor) was 16.5 µM (active).
For `COc1ccc(C(=O)/C=C/c2cccnc2)c(OC)c1`, the IC50 (Vero [2]) was > 25 µM (active) and the CC50 (Vero [3]) was 14.9 µM (active).
For `Cc1nc(SC(C)C(=O)NCC2CCCO2)c2cc(-c3ccccc3)sc2n1` (stereo not drawn), the IC50 (Vero [2]) was 5.04 µM (active) and the CC50 (Vero [3]) was > 25 µM (active).
With `Oc1nc(SCc2ccc(Cl)cc2)nc2ccsc12` the EC50 [4] was 21.9 µM (active), the IC50 (Caspase-3) was 15.2 µM (active) and the IC50 [5] was 8.53 µM (active). For the same molecule, the IC50 [6] was 68.7 µM (active) and the IC50 [7] was 6.14 µM (active).
In the case of `COc1ccc(Br)cc1CNC(=O)C1CCN(S(=O)(=O)N2CCC(C)CC2)CC1`, the IC50 (Phospholipase A2) is reported as 6.6 µM (active) and the IC50 (Cysteine protease ATG4B) is reported as 9.71 µM (active).
In the case of `CCN(Cc1ccccc1)S(=O)(=O)c1c[nH]c(C(=O)OC)c1`, the AC50 (Escherichia coli) is reported as 80.5 µM (active).
In the case of `CCN(CC)C(=O)Oc1ccc2ccccc2c1Br`, the IC50 (Vero [2]) is reported as > 25 µM (active), the CC50 (Vero [3]) is reported as 22.7 µM (active) and the CC50 [8] is reported as 44.8 µM (active).
With `Cc1cc(C(=O)NC2CCCc3c2cnn3-c2cccc(C)c2C)no1` (stereo not drawn) the IC50 (Vero [2]) was 1.53 µM (active), the EC50 [9] was > 120 µM (not active) and the EC50 (H4) was > 120 µM (not active).
In the case of `Oc1ccc(Cl)cc1N=Nc1ccccc1`, the IC50 (Caspase-3) is reported as 23.6 µM (active), the IC50 [5] is reported as 7.8 µM (active) and the IC50 [6] is reported as > 100 µM (inactive). The IC50 [7] was 35.4 µM (active).
For `CCCCn1c(N)c(N(CCOC)C(=O)COC(=O)C(C)Oc2ccc(Cl)cc2)c(=O)[nH]c1=O` (stereo not drawn), the AC50 (Escherichia coli) was 22 µM (active).
For `COc1ccccc1OC(=O)c1ccc(C)c(S(=O)(=O)N2CCOCC2)c1`, the AC50 (Escherichia coli) was 23.7 µM (active).
With `Cc1ccc(-n2cc3ccc([N+](=O)[O-])cc3n2)cc1` the EC50 [4] was > 260 µM (inconclusive), the IC50 (Caspase-3) was 34.7 µM (active) and the IC50 [5] was 12.5 µM (active). The IC50 [6] was 59.9 µM (active) and the IC50 [7] was 17.2 µM (active).
